Source: PMC6426897, “Inhibition of NLRP3 inflammasome activation by cell-permeable stapled peptides” (Scientific Reports, 2019)
Where a SMILES comes first, the peptide text is derived from it. Bridges are numbered along the chain shown (N, C = ends). [ ]: non-standard residue; d: D form. R8 = C=CCCCCCC[C@@](C)(N)C(=O)O; S5 = C=CCCC[C@](C)(N)C(=O)O

Experiments:
ASC PYD (Homo sapiens) = ASC PYD (Homo sapiens) (UniProt Q9ULZ3); experiment: NMR titration; details: cited from earlier work
NLRP3 inflammasome = experiment: IL-1β release from THP-1 cells stimulated with LPS and nigericin (ELISA); assay type: cell-based, human; details: 10, 50 and 100 μM peptide for 4 hours, then LPS 4 hours, nigericin 1 hour; Fig. 6
Method: We next examined whether the ASC peptides could inhibit IL-1β production, which is regulated by the inflammasome. We used THP-1 human monocytic cells to study inflammasome activation as they express high levels of NLRP3, ASC, and pro-casp-1. THP-1 cells were incubated with ms_ASC^PYD #1–6 or ms_NLRP3^PYD peptides at increasing concentrations for 4 hours and were then stimulated with LPS for 4 hours, followed by the NLRP3 activator nigericin for 1 hour. IL-1β levels were measured in the culture supernatant. […] The ms_ASC^PYD peptides reduced IL-1β production from THP-1 cells in response to LPS/nigericin stimulation to variable degrees (Fig. 6A). […] We decided to continue investigating in detail the inhibitory effects of ms_ASC^PYD #5 and #6 peptides, as their estimated binding energies matched well with the experimental data of suppression of ASC-dependent IL-1 release in a dose-dependent manner. Since ms_ASCPYD #6 is the shorter version of ms_ASCPYD #5, this selection also enabled us to verify the effect of varying peptide lengths.
Human monocytic THP-1 cells (1 × 10^7 cells) were plated in a 10-cm tissue culture dish and treated with PMA (200 nM) overnight to differentiate monocytic cells into macrophages. Cells were then washed and allowed to rest in fresh media for another day. For stimulation, differentiated THP-1 cells were trypsinized and seeded in 96-well plates (2 × 10^6/well). Peripheral blood mononuclear cells were isolated by Ficoll-Hypaque density gradient centrifugation from buffy coats obtained from anonymous donors provided by the National University Hospital Blood Bank, Singapore. Isolation of monocytes was performed using negative selection with the Monocyte Isolation Kit II (Miltenyi Biotech), following the manufacturer’s instructions. Monocytes were plated in tissue culture non-treated 96-well plates (2.5 × 10^5/well) in 250 µl RPMI 1640-Glutamax media supplemented with 3% human AB serum (Gemini Bio Products).
THP-1 cells and monocytes were incubated with NLRP3^PYD (12.5–25–50 μM), ASC^PYD #5 (12.5-25-50-100 μM) or ASC^PYD #6 (12.5-25-50-100 μM) for the indicated durations. Cells were then washed once with PBS and primed with E. coli LPS (0.1 μg/ml, Invivogen) for 4 h followed by stimulation with nigericin (10 μM) for an additional 1 h or ATP ([…]) for an additional 30 min. The cell culture supernatants were then collected and centrifuged at 500 × g to remove cells and cellular debris.
IL-1β levels were measured using antibodies from eBioscience (cat. #14-7018-81 and #13-7016-85), following the manufacturer’s instructions. IL-18 levels were measured using antibodies from MBL (D044-3 and D045-6) following the manufacturer’s instructions. The absorbance was measured at 450 nm with the reference wavelength at 570 nm, using an M200 Infinite plate reader (Tecan).

[1] = Circular dichroism, percentage of helicity (K2D3); assay type: physicochemical; details: CD, room temperature, water, 100 μM peptide; estimated with K2D3
Text: The conformation of helix 2 (^16TAEELKKFKLKLLSV^30) bound to ASC^PYD (Fig. 1A) was used as the starting structure for the peptide-protein interaction modeling. Following I,I + 7 stapling scheme, we inserted a hydrocarbon staple across positions 5 and 12 along the peptide and then introduced mutations to produce a set of stapled peptides. Two variants of the template peptide were designed – a short version containing 13 residues (ms_ASC^PYD #6) and a long version containing 15 residues (ms_ASC^PYD #1–5) with two additional residues at the N-terminus (Table 1). These two additional residues were inserted to increase the length of the peptide, thus potentially enabling sufficient conformational flexibility for the region involving the critical Arg3 to remain helical. A similar approach was taken to introduce the staple in the ms_NLRP3^PYD peptide. As determined from Circular Dichroism (CD) spectra, inserting the I,I + 7 staple had the intended effect of increasing helicity of the peptides (Fig. 3). […] Percentage of helicity was much higher for ASC^PYD stapled peptides #5 and #6, 95% and 70% respectively at 100 μM peptide concentration. Percentage of helicity for the peptides were estimated from the web server K2D3[36] using CD data.
Figure 3 Circular dichroism (CD) spectra of (A) NLRP3^PYD and (B) ASC^PYD peptides to measure secondary structures.

Row | Compound | Kd (ASC PYD (Homo sapiens)) [µM] | IL-1β release (in words) (NLRP3 inflammasome) | Percentage of helicity [1]
1 | ASC PYD (from UniProt Q9ULZ3) | 65 |  | 
2 | CC(=O)N[C@H](C(=O)N[C@@H](C)C(=O)N[C@@H](CCCNC(=N)N)C(=O)N[C@@H](CCC(=O)O)C(=O)N[C@]1(C)CCCCCCC=CCCC[C@@](C)(C(=O)N[C@@H](CCC(=O)O)C(=O)N[C@@H](CO)C(=O)N[C@H](C(N)=O)C(C)C)NC(=O)[C@H](CCCCN)NC(=O)[C@H](Cc2ccccc2)NC(=O)[C@H](CCCCN)NC(=O)[C@H](C)NC(=O)[C@H](CCCCN)NC(=O)[C@H](CCCCN)NC1=O)[C@@H](C)O [ms_ASC^PYD #2] (Ac-TARE[R8]KKAKFK[S5]ESV-NH2; staple 5-12) |  | inability to suppress IL-1β release | 
3 | CC(=O)N[C@H](C(=O)N[C@@H](CC(=O)O)C(=O)N[C@]1(C)CCCCCCC=CCCC[C@@](C)(C(=O)N[C@@H](CCC(=O)O)C(=O)N[C@@H](CC(=O)O)C(=O)N[C@@H](Cc2ccc(O)cc2)C(N)=O)NC(=O)[C@H](Cc2c[nH]cn2)NC(=O)[C@H](Cc2ccccc2)NC(=O)[C@H](CCCCN)NC(=O)[C@H](C)NC(=O)[C@H](CCCCN)NC(=O)[C@H](CCCCN)NC1=O)C(C)C [ms_NLRP3^PYD] (Ac-VD[R8]KKAKFH[S5]EDY-NH2; staple 3-10) |  | produced less IL-1β in a dose-dependent manner | 48%
4 | Ac-VDLKKFKMHLEDY-NH2 [wt_NLRP3^PYD] |  |  | no helicity
